In patent publication US20240368135A1 (VERTEX PHARMACEUTICALS INCORPORATED, priority 2021, published 2024):
Like-named read-outs stand apart in the source and are kept apart here.

Target: human NaV 1.8 (Homo sapiens, UniProt Q9Y5Y9)
Test: E-VIPR assay detecting and measuring NaV inhibition properties
Assay type: cell-based
Conditions: HEK cells expressing truncated human NaV 1.8
Procedure, shortened: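 Membrane potential was followed by coumarin/oxonol FRET during electrical field stimulation of matrigel-seeded HEK cells carrying truncated human NaV1.8 plus KIR2.1. Dosing used 11 points, 3-fold steps, top 300 nM final, 0.625% DMSO, with or without 25% human serum.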

[1] = no human serum, read-out: IC50 in the E-VIPR Assay
[2] = in the presence of human serum (compound numbers followed by *), read-out: IC50 in the E-VIPR Assay, performed in the presence of human serum

human NaV 1.8, sequence (Q9Y5Y9 126-399 limits assumed): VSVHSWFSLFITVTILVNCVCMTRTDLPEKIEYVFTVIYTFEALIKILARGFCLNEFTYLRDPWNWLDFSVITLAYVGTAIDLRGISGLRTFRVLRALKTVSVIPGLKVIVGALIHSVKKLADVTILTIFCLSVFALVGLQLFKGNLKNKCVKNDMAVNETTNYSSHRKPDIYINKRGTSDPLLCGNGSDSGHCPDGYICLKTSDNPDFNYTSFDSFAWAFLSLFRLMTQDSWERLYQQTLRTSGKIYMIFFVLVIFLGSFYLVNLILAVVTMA
human NaV 1.8, sequence (Q9Y5Y9 660-890 limits assumed): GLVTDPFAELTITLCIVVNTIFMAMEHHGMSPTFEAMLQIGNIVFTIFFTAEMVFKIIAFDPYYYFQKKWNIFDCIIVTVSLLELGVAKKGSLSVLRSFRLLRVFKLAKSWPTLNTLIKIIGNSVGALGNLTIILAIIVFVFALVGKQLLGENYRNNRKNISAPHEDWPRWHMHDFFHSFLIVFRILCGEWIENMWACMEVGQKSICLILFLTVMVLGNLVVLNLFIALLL
human NaV 1.8, sequence (Q9Y5Y9 1148-1722 limits assumed): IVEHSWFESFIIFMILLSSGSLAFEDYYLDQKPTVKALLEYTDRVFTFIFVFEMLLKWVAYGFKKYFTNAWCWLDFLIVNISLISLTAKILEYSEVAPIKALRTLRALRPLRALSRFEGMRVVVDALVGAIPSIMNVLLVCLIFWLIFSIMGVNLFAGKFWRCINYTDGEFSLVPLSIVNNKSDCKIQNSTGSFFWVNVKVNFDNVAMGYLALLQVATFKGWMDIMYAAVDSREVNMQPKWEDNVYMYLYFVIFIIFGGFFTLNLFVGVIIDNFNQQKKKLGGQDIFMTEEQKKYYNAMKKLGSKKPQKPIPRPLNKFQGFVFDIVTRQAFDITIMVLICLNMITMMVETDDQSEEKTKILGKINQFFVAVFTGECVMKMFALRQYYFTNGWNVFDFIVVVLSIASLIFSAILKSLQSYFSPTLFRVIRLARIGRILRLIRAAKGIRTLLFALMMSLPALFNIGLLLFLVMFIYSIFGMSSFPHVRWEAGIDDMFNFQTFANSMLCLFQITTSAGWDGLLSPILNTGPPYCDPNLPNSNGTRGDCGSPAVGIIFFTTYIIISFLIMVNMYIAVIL

| SMILES | IC50 [1] [nM] | IC50 [2] [nM] |
| --- | --- | --- |
| COCCOc1c([C@H]2[C@H](C(=O)Nc3ccc(=O)n(C)c3)O[C@@](C)(C(F)(F)F)[C@H]2C)ccc(F)c1F [Compound 584, (2R,3S,4S,5R)-3-(3,4-difluoro-2-(2-methoxyethoxy)phenyl)-4,5-dimethyl-N-(1-methyl-6-oxo-1,6-dihydropyridin-3-yl)-5-(trifluoromethyl)tetrahydrofuran-2-carboxamide] | < 10 | – |
| COc1c([C@H]2[C@H](C(=O)Nc3ccnc(N4CCNCC4=O)c3)O[C@@](C)(C(F)(F)F)[C@H]2C)ccc(F)c1F [Compound 411, (2R,3S,4S,5R)-3-(3,4-difluoro-2-methoxyphenyl)-4,5-dimethyl-N-(2-(2-oxopiperazin-1-yl)pyridin-4-yl)-5-(trifluoromethyl)-tetrahydrofuran-2-carboxamide] | < 10 | – |
| COc1c(C2C(C(=O)Nc3ccnc(S(C)(=N)=O)c3)OC(C)(C(F)(F)F)C2C)ccc(F)c1F (single isomer, unassigned) [Compound 56, 3-(3,4-difluoro-2-methoxy-phenyl)-4,5-dimethyl-N-[2-(methylsulfonimidoyl)-4-pyridyl]-5-(trifluoromethyl)tetrahydrofuran-2-carboxamide] | 100 to 1000 | – |
| COc1cc(F)ccc1[C@H]1C[C@@](C)(C(F)(F)F)O[C@@H]1C(=O)Nc1ccnc(S(C)(=O)=O)c1 (stereo in doubt) [Compound 713, rel-(2S,3R,5S)-3-(4-fluoro-2-methoxyphenyl)-5-methyl-N-(2-(methylsulfonyl)pyridin-4-yl)-5-(trifluoromethyl)tetrahydrofuran-2-carboxamide] | – | ≥ 1000 |
| C[C@H]1[C@@H](c2ccc(F)c(F)c2OC(F)F)[C@H](C(=O)Nc2ccnc(C(C)(C)O)c2)O[C@@]1(C)C(F)(F)F (single isomer, unassigned) [Compound 84] | < 10 | – |
| COc1c([C@H]2[C@H](C(=O)Nc3ccnc(C4(N)CCOC4)c3)O[C@@](C)(C(F)(F)F)[C@H]2C)ccc(F)c1F (single isomer, unassigned) [Compound 347, rel-(2R*,3S*,4S*,5R*)-N-(2-(3-aminotetrahydrofuran-3-yl)pyridin-4-yl)-3-(3,4-difluoro-2-methoxyphenyl)-4,5-dimethyl-5-(trifluoromethyl)-tetrahydrofuran-2-carboxamide] | 10 to 100 | – |
| C[C@@H]1[C@H](c2ccc(F)c(F)c2OC(F)F)[C@@H](C(=O)Nc2ccc(C(N)=O)nc2)O[C@]1(C)C(F)(F)F (single isomer, unassigned) [Compound 93] | – | ≥ 1000 |
| CNC(=O)c1ccc(NC(=O)[C@H]2O[C@](C)(C(F)(F)F)[C@H](C)[C@@H]2c2ccc(F)c(C(F)F)c2OC)cn1 (stereo in doubt) [Compound 171, rel-5-((2S,3R,4R,5S)-3-(3-(difluoromethyl)-4-fluoro-2-methoxyphenyl)-4,5-dimethyl-5-(trifluoromethyl)tetrahydrofuran-2-carboxamido)-N-methylpicolinamide] | 10 to 100 | – |
| COc1c([C@H]2[C@H](C(=O)Nc3ccnc(C(C)O)c3)O[C@@](C)(C(F)(F)F)[C@H]2C)ccc(F)c1F (single isomer, unassigned) [Compound 532] | < 10 | – |
| COc1c(C2C(C(=O)Nc3ccnc(C(O)CO)c3)OC(C)(C(F)(F)F)C2C)ccc(F)c1F (single isomer, unassigned) [Compound 44, 3-(3,4-difluoro-2-methoxy-phenyl)-N-[2-(1,2-dihydroxyethyl)-4-pyridyl]-4,5-dimethyl-5-(trifluoromethyl)tetrahydrofuran-2-carboxamide] | < 10 | – |
| COc1c([C@@H]2[C@@H](C(=O)Nc3cnc(C(N)=O)nc3)O[C@](C)(C(F)(F)F)[C@@H]2C)ccc(F)c1C(F)F (stereo in doubt) [Compound 172, rel-5((2S,3R,4R,5S)-3-(3-(difluoromethyl)-4-fluoro-2-methoxy-phenyl)-4,5-dimethyl-5-(trifluoromethyl)tetrahydrofuran-2-carboxamido)pyrimidine-2-carboxamide] | ≥ 1000 | – |
| CCS(=O)(=O)c1cc(NC(=O)C2OC(C)(C(F)(F)F)C(C)C2c2ccc(F)c(F)c2OC)ccn1 (single isomer, unassigned) [Compound 52, 3-(3,4-difluoro-2-methoxy-phenyl)-N-(2-ethylsulfonyl-4-pyridyl)-4,5-dimethyl-5-(trifluoromethyl)tetrahydrofuran-2-carboxamide] | ≥ 1000 | – |
| COc1c([C@H]2[C@H](C(=O)NCCc3cnn(C)c3)O[C@@](C)(C(F)(F)F)[C@H]2C)ccc(F)c1F [Compound 283, (2R,3S,4S,5R)-3-(3,4-difluoro-2-methoxyphenyl)-4,5-dimethyl-N-(2-(1-methyl-1H-pyrazol-4-yl)ethyl)-5-(trifluoromethyl)tetrahydrofuran-2-carboxamide] | ≥ 1000 | – |
| CCOc1c([C@H]2[C@H](C(=O)Nc3ccnc(S(C)(=O)=NC)c3)O[C@@](C)(C(F)(F)F)[C@H]2C)ccc(F)c1C (single isomer, unassigned) [Compound 130] | < 10 | – |
| COc1c([C@H]2[C@H](C(=O)Nc3cc4n(n3)CCOC4)O[C@@](C)(C(F)(F)F)[C@H]2C)ccc(F)c1F [Compound 321, (2R,3S,4S,5R)-3-(3,4-difluoro-2-methoxyphenyl)-N-(6,7-dihydro-4H-pyrazolo[5,1-c][1,4]oxazin-2-yl)-4,5-dimethyl-5-(trifluoromethyl)-tetrahydrofuran-2-carboxamide] | ≥ 1000 | – |
| COc1c([C@H]2[C@H](C(=O)Nc3cncc(N4C(=O)CN(C)C[C@H]4C)c3)O[C@@](C)(C(F)(F)F)[C@H]2C)ccc(F)c1F [Compound 535, (2R,3S,4S,5R)-3-(3,4-difluoro-2-methoxyphenyl)-N-(5-((R)-2,4-dimethyl-6-oxopiperazin-1-yl)pyridin-3-yl)-4,5-dimethyl-5-(trifluoromethyl)tetrahydrofuran-2-carboxamide] | 10 to 100 | – |
| COc1c([C@H]2[C@H](C(=O)NC3CC(F)(F)C3)O[C@@](C)(C(F)(F)F)[C@H]2C)ccc(F)c1F [Compound 280, (2R,3S,4S,5R)-3-(3,4-difluoro-2-methoxyphenyl)-N-(3,3-difluorocyclobutyl)-4,5-dimethyl-5-(trifluoromethyl)tetrahydrofuran-2-carboxamide] | 100 to 1000 | – |
| COc1c([C@@H]2C[C@](C)(C(F)(F)F)O[C@H]2C(=O)Nc2ccnc([C@@H](O)CO)c2)ccc(F)c1C (single isomer, unassigned) [Compound 706] | 10 to 100 | – |
| C[C@H]1[C@@H](c2ccc(F)c(F)c2OCC(C)(F)F)[C@H](C(=O)Nc2ccnc(CO)c2)O[C@@]1(C)C(F)(F)F [Compound 643, (2R,3S,4S,5R)-3-(2-(2,2-difluoropropoxy)-3,4-difluorophenyl)-N-(2-(hydroxymethyl)pyridin-4-yl)-4,5-dimethyl-5-(trifluoromethyl)tetrahydrofuran-2-carboxamide] | < 10 | – |
| COc1c([C@@H]2[C@@H](C(=O)Nc3ccc(C(F)F)nc3)O[C@](C)(C(F)(F)F)[C@@H]2C)ccc(F)c1C(F)F (single isomer, unassigned) [Compound 164] | ≥ 1000 | – |
| COc1c(C2C(C(=O)Nc3ccnc(C(O)C(C)O)c3)OC(C)(C(F)(F)F)C2C)ccc(F)c1C (single isomer, unassigned) [Compound 144] | < 10 | – |
| Cc1nn(C(F)F)cc1NC(=O)[C@@H]1O[C@@](C)(C(F)(F)F)[C@@H](C)[C@H]1c1ccc(F)c(F)c1OCC(N)=O [Compound 605, (2R,3S,4S,5R)-3-(2-(2-amino-2-oxoethoxy)-3,4-difluorophenyl)-N-(1-(difluoromethyl)-3-methyl-1H-pyrazol-4-yl)-4,5-dimethyl-5-(trifluoromethyl)tetrahydrofuran-2-carboxamide] | 10 to 100 | – |
| COc1c([C@H]2[C@H](C(=O)Nc3cc(C4CNCCO4)ncc3F)O[C@@](C)(C(F)(F)F)[C@H]2C)ccc(F)c1F (single isomer, unassigned) [Compound 350, rel-(2R*,3S*,4S*,5R*)-3-(3,4-difluoro-2-methoxyphenyl)-N-(5-fluoro-2-(morpholin-2-yl)pyridin-4-yl)-4,5-dimethyl-5-(trifluoromethyl)-tetrahydrofuran-2-carboxamide] | 10 to 100 | – |
| COCc1cc(C)nc(NC(=O)[C@@H]2O[C@@](C)(C(F)(F)F)[C@@H](C)[C@H]2c2ccc(F)c(F)c2OCCO)n1 [Compound 562, (2R,3S,4S,5R)-3-(3,4-difluoro-2-(2-hydroxyethoxy)phenyl)-N-(4-(methoxymethyl)-6-methylpyrimidin-2-yl)-4,5-dimethyl-5-(trifluoromethyl)tetrahydrofuran-2-carboxamide] | ≥ 1000 | – |
| COc1c([C@H]2[C@H](C(=O)NCc3ccc4ncccc4c3)O[C@@](C)(C(F)(F)F)[C@H]2C)ccc(F)c1F [Compound 294, (2R,3S,4S,5R)-3-(3,4-difluoro-2-methoxyphenyl)-4,5-dimethyl-N-(quinolin-6-ylmethyl)-5-(trifluoromethyl)tetrahydrofuran-2-carboxamide] | ≥ 1000 | – |
| COc1c([C@H]2[C@H](C(=O)Nc3ccc4ncn(C)c4c3)O[C@@](C)(C(F)(F)F)[C@H]2C)ccc(F)c1F [Compound 185, (2R,3S,4S,5R)-3-(3,4-difluoro-2-methoxyphenyl)-4,5-dimethyl-N-(1-methyl-1H-benzo[d]imidazol-6-yl)-5-(trifluoromethyl)tetrahydrofuran-2-carboxamide] | – | ≥ 1000 |
| COc1c([C@H]2[C@H](C(=O)Nc3ccc(S(C)(=N)=O)nc3)O[C@@](C)(C(F)(F)F)[C@H]2C)ccc(F)c1F (single isomer, unassigned) [Compound 337, rel-(2R*,3S*,4S*,5R*)-3-(3,4-difluoro-2-methoxyphenyl)-4,5-dimethyl-N-(6-(S-methylsulfonimidoyl)-pyridin-3-yl)-5-(trifluoromethyl)-tetrahydrofuran-2-carboxamide] | 10 to 100 | – |
